Our source for the LD50 values is patent publication US5059717A, “Method for purification of 2,2'-di(1,6,7-trihydroxy-3-methyl-5-isopropyl-8-naphthaldehyde)” (priority 1990, dated 1991).

The data set concerns mice. In words: Acute toxicity in oral administration to mice. Format: in vivo. An excerpt:
The results of tests for an acute toxicity of the thus-obtained desired product when administered orally to mice are shown in the Table hereinbelow.
The results of tests of the thus-obtained desired product for an acute toxicity in oral administration to mice are shown in the Table hereinbelow.
Acute toxicity of 2,2'-di-(1,6,7-trihydroxy-3-methyl-
5-isopropyl-8-naphthaldehyde) in oral administration
Consider `Cc1cc2c(C(C)C)c(O)c(O)c(C=O)c2c(O)c1-c1c(C)cc2c(C(C)C)c(O)c(O)c(C=O)c2c1O` [Example 1, 2,2'-di-(1,6,7-trihydroxy-3-methyl-5-isopropyl-8-naphthaldehyde)], for which the LD50 is recorded as 640 (450-768) mg/kg.
For the compound `Cc1cc2c(C(C)C)c(O)c(O)c(C=O)c2c(O)c1-c1c(C)cc2c(C(C)C)c(O)c(O)c(C=O)c2c1O` [Example 2, 2,2'-di-(1,6,7-trihydroxy-3-methyl-5-isopropyl-8-naphthaldehyde)], the LD50 entry is given as “over 1,500 mg/kg”.
Take `Cc1cc2c(C(C)C)c(O)c(O)c(C=O)c2c(O)c1-c1c(C)cc2c(C(C)C)c(O)c(O)c(C=O)c2c1O` [Example 3, 2,2'-di-(1,6,7-trihydroxy-3-methyl-5-isopropyl-8-naphthaldehyde)]: the LD50 is on record as 750 (646-870) mg/kg.
As for `Cc1cc2c(C(C)C)c(O)c(O)c(C=O)c2c(O)c1-c1c(C)cc2c(C(C)C)c(O)c(O)c(C=O)c2c1O` [known preparation, 2,2'-di-(1,6,7-trihydroxy-3-methyl-5-isopropyl-8-naphthaldehyde), reference compound], the figure is 383 (340-426) mg/kg.
